Measured values as given in patent publication US20230075856A1, “CYCLIC SULFAMIDE COMPOUNDS FOR TREATMENT OF HBV” (Assembly Biosciences, Inc., priority 2018, published 2023).

Tested on: HBV viral load production from HepAD38 cells
Assay: Viral production from HepAD38 cells: viral load in supernatant by qPCR of the HBV core sequence
Assay type: cell-based
Conditions: 5 days incubation, qPCR of supernatant HBV DNA vs DMSO control, read-out: viral load lowering EC50 (Activity)
Procedure, shortened: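 HepAD38 cells seeded at 50,000/well in tetracycline-free medium with 2% FBS, treated with compounds (final top concentration 10 μM) for 5 days at 37 °C. Supernatant HBV DNA quantified by TaqMan qPCR of core sequence against HBV DNA standards, relative to DMSO controls; EC50 by four-parameter logistic fit.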

Row | Structure (SMILES) | EC50 [nM]
1 | Cc1nc(-c2ccccn2)sc1CNC(=O)C1CC(C(=O)Nc2ccc(F)c(Cl)c2)N(C)S(=O)(=O)N1 (single isomer, unassigned) [1065-ISOMER-B, N3-(3-chloro-4-fluoro-phenyl)-2-methyl-N5-[[4-methyl-2-(2-pyridyl)thiazol-5-yl]methyl]-1,1-dioxo-1,2,6-thiadiazinane-3,5-dicarboxamide] | < 50
2 | CN1C(C(=O)Nc2ccc(F)c(Cl)c2)CC(C(=O)NC2CCN(C(=O)OC(C)(C)C)CC2)NS1(=O)=O (single isomer, unassigned) [Compound 767-ISOMER-B, tert-butyl 4-[[5-[(3-chloro-4-fluoro-phenyl)carbamoyl]-6-methyl-1,1-dioxo-1,2,6-thiadiazinane-3-carbonyl]amino]piperidine-1-carboxylate] | 100 to 10000
3 | COC(=O)N1CCC(NC(=O)C2CC(C(=O)Nc3ccc(F)c(Cl)c3)N(C)S(=O)(=O)N2)CC1 (single isomer, unassigned) [Compound 477-ISOMER-B, methyl 4-[[5-[(3-chloro-4-fluoro-phenyl)carbamoyl]-6-methyl-1,1-dioxo-1,2,6-thiadiazinane-3-carbonyl]amino]piperidine-1-carboxylate] | 100 to 10000
4 | CN1C(C(=O)Nc2ccc(F)c(Cl)c2)CC(C(=O)NCc2cnc(-c3ccc(C#CCN4CCCCC4)cc3)s2)NS1(=O)=O (single isomer, unassigned) [Compound 946-ISOMER-B, N3-(3-chloro-4-fluoro-phenyl)-2-methyl-1,1-dioxo-N5-[[2-[4-[3-(1-piperidyl)prop-1-ynyl]phenyl]thiazol-5-yl]methyl]-1,2,6-thiadiazinane-3,5-dicarboxamide] | 100 to 10000
5 | CN1C(C(=O)Nc2ccc(F)c(Cl)c2)CC(C(=O)NC2CCCc3nc(-c4ccc(OCCN5CCCCC5)cc4)sc32)NS1(=O)=O (single isomer, unassigned) [Compound 948-ISOMER-B, N3-(3-chloro-4-fluoro-phenyl)-2-methyl-1,1-dioxo-N5-[2-[4-[2-(1-piperidyl)ethoxy]phenyl]-4,5,6,7-tetrahydro-1,3-benzothiazol-7-yl]-1,2,6-thiadiazinane-3,5-dicarboxamide] | 100 to 10000
6 | CN1C(C(=O)Nc2ccc(F)c(Cl)c2)CC(C(=O)NC2CCN(c3cc(CN4CCCCC4)ccn3)CC2)NS1(=O)=O (single isomer, unassigned; isomer-b) [Compound 975-ISOMER-B, N3-(3-chloro-4-fluroo-phenyl)-2-methyl-1,1-dioxo-N5-[1-[4-(1-piperidylmethyl)-2-pyridyl]-4-piperidyl]-1,2,6-thiadiazinane-3,5-dicarboxamide] | 100 to 10000
7 | Cc1cccc(CNC(=O)C2CC(C(=O)Nc3ccc(F)c(Cl)c3)N(C)S(=O)(=O)N2)n1 (single isomer, unassigned; isomer-b) [Compound 716-ISOMER-B, N3-(3-chloro-4-fluoro-phenyl)-2-methyl-N5-[(6-methyl-2-pyridyl)methyl]-1,1-dioxo-1,2,6-thiadiazinane-3,5-dicarboxamde] | 100 to 10000

Same assay, conditions: Hepatitis B virus, HePAD38, 120 h, 5 days incubation, qPCR of supernatant HBV DNA vs DMSO control, read-out: viral load lowering EC50 (Activity)

Row | Structure (SMILES) | EC50 [nM]
8 | CN1C(C(=O)Nc2ccc(F)c(Cl)c2)CC(C(=O)NCc2ncc(-c3ccccc3)s2)NS1(=O)=O (single isomer, unassigned) [Compound 931-ISOMER-A, N3-(3-chloro-4-fluoro-phenyl)-2-methyl-1,1-dioxo-N5-[(5-phenylthiazol-2-yl)methyl]-1,2,6-thiadiazinane-3,5-dicarboxamide] | 100 to 10000
9 | CN1C(C(=O)Nc2ccc(F)c(Cl)c2)CC(C(=O)NCc2cnc(-c3ccccn3)s2)NS1(=O)=O (stereo not shown) [Compound 1162] | < 50
10 | C[C@@H](NC(=O)C1CC(C(=O)Nc2ccc(F)c(Cl)c2)N(C)S(=O)(=O)N1)c1ccccc1 (single isomer, unassigned) [Compound 719-ISOMER-A] | < 50
11 | Cc1cc(CNC(=O)C2CC(C(=O)Nc3ccc(F)c(Cl)c3)N(C)S(=O)(=O)N2)n(C)n1 (single isomer, unassigned) [Compound 482-ISOMER-A, N3-(3-chloro-4-fluoro-phenyl)-N5-[(2,5-dimethylpyrazol-3-yl)methyl]-2-methyl-1,1-dioxo-1,2,6-thiadiazinane-3,5-dicarboxamide] | < 50
12 | CN1C(C(=O)Nc2ccc(F)c(Cl)c2)CC(C(=O)NCc2cnc(-c3ccc(C#CCN4CCCCC4)cc3)s2)NS1(=O)=O (single isomer, unassigned) [Compound 946-ISOMER-A, N3-(3-chloro-4-fluoro-phenyl)-2-methyl-1,1-dioxo-N5-[[2-[4-[3-(1-piperidyl)prop-1-ynyl]phenyl]thiazol-5-yl]methyl]-1,2,6-thiadiazinane-3,5-dicarboxamide] | < 50
13 | C[C@@H](NC(=O)C1CC(C(=O)Nc2ccc(F)c(Cl)c2)N(C)S(=O)(=O)N1)c1ccccc1 (stereo partly shown) [Compound 719] | < 50
14 | C[C@@H](NC(=O)C1CC(C(=O)Nc2ccc(F)c(C#N)c2)N(C)S(=O)(=O)N1)c1ccc(F)cc1 (stereo partly shown) [Compound 776] | 100 to 10000
15 | CN1C(C(=O)Nc2ccc(F)c(Cl)c2)CC(C(=O)NC2CCN(c3ccccn3)CC2)NS1(=O)=O (single isomer, unassigned) [Compound 769-ISOMER-A, N3-(3-chloro-4-fluoro-phenyl)-2-methyl-1,1-dioxo-N5-[1-(2-pyridyl)-4-piperidyl]-1,2,6-thiadiazinane-3,5-dicarboxamide] | < 50
16 | COC(=O)N1CCC(NC(=O)C2CC(C(=O)Nc3ccc(F)c(C#N)c3)N(C)S(=O)(=O)N2)CC1 (stereo not shown) [Compound 770] | 50 to 100
17 | CCN1CCC(Oc2ccc(-c3ncc(CNC(=O)C4CC(C(=O)Nc5ccc(F)c(Cl)c5)N(C)S(=O)(=O)N4)s3)cc2)CC1 (single isomer, unassigned) [Compound 921-ISOMER-A, N3-(3-chloro-4-fluoro-phenyl)-N5-[[2-[4-[(1-ethyl-4-piperidyl)oxy]phenyl]thiazol-5-yl]methyl]-2-methyl-1,1-dioxo-1,2,6-thiadiazinane-3,5-dicarboxamide] | < 50
18 | Cc1ccnc(N2CCC(NC(=O)C3CC(C(=O)Nc4ccc(F)c(Cl)c4)N(C)S(=O)(=O)N3)CC2)c1 (stereo not shown) [Compound 971] | < 50
19 | CN1C(C(=O)Nc2ccc(F)c(Cl)c2)CC(C(=O)NCc2ccccc2-c2cn(C)cn2)NS1(=O)=O (stereo not shown) [Compound 823] | < 50
20 | CN1C(C(=O)Nc2ccc(F)c(Cl)c2)CC(C(=O)N[C@H]2CCN(c3ccnc(Cl)c3)C2)NS1(=O)=O (stereo partly shown) [Compound 1055-S] | < 50
21 | CN1C(C(=O)Nc2ccc(F)c(Cl)c2)CC(C(=O)NCc2cnc(-c3cccc(Cl)c3)s2)NS1(=O)=O (stereo not shown) [Compound 913] | 50 to 100
22 | CN1C(C(=O)Nc2ccc(F)c(Cl)c2)CC(C(=O)NC2CCN(c3ccnc(F)c3)CC2)NS1(=O)=O (single isomer, unassigned) [1040-ISOMER-A, N3-(3-chloro-4-fluoro-phenyl)-N5-[1-(2-fluoro-4-pyridyl)-4-piperidyl]-2-methyl-1,1-dioxo-1,2,6-thiadiazinane-3,5-dicarboxamide] | < 50
23 | CN1C(C(=O)Nc2ccc(F)c(Cl)c2)CC(C(=O)NC(c2ccccc2)c2cnc(-c3ccccc3)s2)NS1(=O)=O (stereo not shown) [Compound 1067] | < 50
24 | CN1C(C(=O)Nc2ccc(F)c(Cl)c2)CC(C(=O)Nc2cnn(C)c2)NS1(=O)=O (stereo not shown) [Compound 478] | 100 to 10000
25 | COc1ccccc1-c1ncc(CNC(=O)C2CC(C(=O)Nc3ccc(F)c(Cl)c3)N(C)S(=O)(=O)N2)s1 (stereo not shown) [Compound 987] | < 50
